system: HCV 1b-377-neo replicon cells; assay: HCV replicon assay, HCV 1b-377-neo replicon cells (1b FRET); format: cell-based, Hepatitis C virus genotype 1b; settings: HCV 1b-377-neo replicon cells; HCV 1b genotype; read-out: EC50 range against HCV 1b (Table 2, Range)
How it was run: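 FRET-based replicon assay in HCV 1b-377-neo cells, including a comparison line carrying the NS5A Y2065H mutation that confers resistance to a reference compound.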

Compound | EC50 [pM]
COC(=O)NC(C(=O)N1CCCC1c1ncc(-c2ccc(-c3ccc(-c4cnc(C5CCCN5C(=O)C(c5csc6ccccc56)N(C)C)[nH]4)cc3)cc2)[nH]1)c1ccccc1 [Example 84-50, methyl ((1R)-2-((2S)-2-(5-(4′-(2-((2S)-1-(1-benzothiophen-3-yl(dimethylamino)acetyl)-2-pyrrolidinyl)-1H-imidazol-5-yl)-4-biphenylyl)-1H-imidazol-2-yl)-1-pyrrolidinyl)-2-oxo-1-phenylethyl)carbamate] | 1 to 999

same assay, conditions: Hepatitis C virus, HCV 1b-377-neo replicon cells; HCV 1b genotype; read-out: EC50 range against HCV 1b (Table 2, Range)

Compound | EC50 [pM]
COC(=O)N[C@@H](C)C(=O)N1CCC[C@H]1c1ncc(-c2ccc(-c3ccc(-c4cnc([C@@H]5CCCN5C(=O)[C@H](NC(=O)OC)c5ccccc5)[nH]4)c(F)c3)cc2F)[nH]1 [Example D62, methyl ((1R)-2-((2S)-2-(5-(3,3′-difluoro-4′-(2-((2S)-1-(N-(methoxycarbonyl)-L-alanyl)-2-pyrrolidinyl)-1H-imidazol-5-yl)-4-biphenylyl)-1H-imidazol-2-yl)-1-pyrrolidinyl)-2-oxo-1-phenylethyl)carbamate] | 1 to 999
COC(=O)N[C@@H](C(=O)N1CCC[C@H]1c1ncc(-c2ccc(-c3ccc(-c4cnc([C@@H]5CCCN5C(=O)C(=O)N(C)C)[nH]4)cc3)cc2)[nH]1)c1ccccc1 [Example 73, methyl ((1R)-2-((2S)-2-(5-(4′-(2-((2S)-1-((dimethylamino)(oxo)acetyl)-2-pyrrolidinyl)-1H-imidazol-5-yl)-4-biphenylyl)-1H-imidazol-2-yl)-1-pyrrolidinyl)-2-oxo-1-phenylethyl)carbamate] | 1 to 999
COC(=O)N[C@@H](C(=O)N1CCC[C@H]1c1ncc(-c2ccc(-c3ccc(-c4cnc([C@@H]5CCCN5C(=O)[C@H](OC)c5ccccc5)[nH]4)cc3)cc2)[nH]1)c1ccccc1Cl [Example 107-43, methyl ((1R)-1-(2-chlorophenyl)-2-((2S)-2-(5-(4′-(2-((2S)-1-((2R)-2-methoxy-2-phenylacetyl)-2-pyrrolidinyl)-1H-imidazol-5-yl)-4-biphenylyl)-1H-imidazol-2-yl)-1-pyrrolidinyl)-2-oxoethyl) carbamate] | 1 to 999
COC(=O)N[C@@H](CC(=O)N1CCN(C)CC1)C(=O)N1CCC[C@H]1c1ncc(-c2ccc(-c3ccc(-c4cnc([C@@H]5CCCN5C(=O)[C@@H](NC(=O)OC)C(C)C)[nH]4)cc3)cc2)[nH]1 [Example M112, methyl ((1S)-1-(((2S)-2-(5-(4′-(2-((2S)-1-((2S)-2-((methoxycarbonyl)amino)-4-(4-methyl-1-piperazinyl)-4-oxobutanoyl)-2-pyrrolidinyl)-1H-imidazol-5-yl)-4-biphenylyl)-1H-imidazol-2-yl)-1-pyrrolidinyl)carbonyl)-2-methylpropyl)carbamate] | 1000 to 99000
CC(C)[C@H](N)C(=O)N1[C@@H]2C[C@@H]2C[C@H]1c1nc(-c2ccc(-c3ccc(-c4cnc([C@@H]5C[C@H]6C[C@H]6N5C(=O)[C@@H](N)C(C)C)[nH]4)cc3)cc2)c[nH]1 [Example M140a-i, (2S)-1-((1R,3S,5R)-3-(4-(4′-(2-((1R,3S,5R)-2-((2S)-2-amino-3-methylbutanoyl)-2-azabicyclo[3.1.0]hex-3-yl)-1H-imidazol-5-yl)-4-biphenylyl)-1H-imidazol-2-yl)-2-azabicyclo[3.1.0]hex-2-yl)-3-methyl-1-oxo-2-butanamine] | 1000 to 99000
CCN(CC)[C@@H](C(=O)N1CCC[C@H]1c1ncc(-c2ccc(-c3ccc(-c4cnc([C@@H]5CCCN5C(=O)[C@H](C)O)[nH]4)cc3)cc2)[nH]1)c1ccccc1 [Example M40, (2S)-1-((2S)-2-(5-(4′-(2-((2S)-1-((2R)-2-(diethylamino)-2-phenylacetyl)-2-pyrrolidinyl)-1H-imidazol-5-yl)-4-biphenylyl)-1H-imidazol-2-yl)-1-pyrrolidinyl)-1-oxo-2-propanol] | 1000 to 99000
CCNC(=O)N1CCC[C@H]1c1ncc(-c2ccc(-c3ccc(-c4cnc([C@@H]5CCCN5C(=O)[C@H](NC(=O)OC)c5ccccc5)[nH]4)cc3)cc2)[nH]1 [Example 108, methyl ((1R)-2-((2S)-2-(5-(4′-(2-((2S)-1-(ethylcarbamoyl)-2-pyrrolidinyl)-1H-imidazol-5-yl)-4-biphenylyl)-1H-imidazol-2-yl)-1-pyrrolidinyl)-2-oxo-1-phenylethyl)carbamate] | 1 to 999
CCN(CC)[C@@H](C(=O)N1CCC[C@H]1c1ncc(-c2ccc(-c3ccc(-c4cnc([C@@H]5CCCN5C(=O)[C@H](COC)NC(=O)OC)[nH]4)cc3)cc2)[nH]1)c1ccccc1 [Example M61, methyl ((1S)-2-((2S)-2-(5-(4′-(2-((2S)-1-((2R)-2-(diethylamino)-2-phenylacetyl)-2-pyrrolidinyl)-1H-imidazol-5-yl)-4-biphenylyl)-1H-imidazol-2-yl)-1-pyrrolidinyl)-1-(methoxymethyl)-2-oxoethyl)carbamate] | 1000 to 99000
COC(=O)N[C@@H](C(=O)N1CCC[C@H]1c1ncc(-c2ccc(-c3ccc(-c4cnc([C@@H]5CCCN5C(=O)[C@H]5CC[C@@H](NC(=O)OC(C)(C)C)CC5)[nH]4)cc3)cc2)[nH]1)c1ccccc1 [Example 84-35, methyl ((1R)-2-((2S)-2-(5-(4′-(2-((2S)-1-((cis-4-((tert-butoxycarbonyl)amino)cyclohexyl)carbonyl)-2-pyrrolidinyl)-1H-imidazol-5-yl)-4-biphenylyl)-1H-imidazol-2-yl)-1-pyrrolidinyl)-2-oxo-1-phenylethyl)carbamate] | 1 to 999
C=CC[C@H](NC(=O)OC)C(=O)N1CCC[C@H]1c1ncc(-c2ccc(-c3ccc(-c4cnc([C@@H]5CCCN5C(=O)[C@H](CC=C)NC(=O)OC)[nH]4)cc3)cc2)[nH]1 [Example M25, dimethyl (4,4′-biphenyldiylbis(1H-imidazole-5,2-diyl(2S)-2,1-pyrrolidinediyl((4S)-5-oxo-1-pentene-5,4-diyl)))biscarbamate] | 1000 to 99000
CCN(CC)[C@@H](C)C(=O)N1CCC[C@H]1c1ncc(-c2ccc(-c3ccc(-c4cnc([C@@H]5CCCN5C(=O)[C@@H](NC(=O)OC)C(C)C)[nH]4)cc3)cc2)[nH]1 [Example M69, methyl ((1S)-1-(((2S)-2-(5-(4′-(2-((2S)-1-(N,N-diethyl-L-alanyl)-2-pyrrolidinyl)-1H-imidazol-5-yl)-4-biphenylyl)-1H-imidazol-2-yl)-1-pyrrolidinyl)carbonyl)-2-methylpropyl)carbamate] | 100000 to 999000
COC(=O)N[C@H](C(=O)N1CCC[C@H]1c1nc(-c2cnc(-c3ccc(-c4cnc([C@@H]5CCCN5C(=O)[C@@H](NC(=O)OC)C(C)C)[nH]4)cc3)nc2)c[nH]1)C(C)C [Example D74, methyl ((1S)-1-(((2S)-2-(5-(2-(4-(2-((2S)-1-((2S)-2-((methoxycarbonyl)amino)-3-methylbutanoyl)-2-pyrrolidinyl)-1H-imidazol-5-yl)phenyl)-5-pyrimidinyl)-1H-imidazol-2-yl)-1-pyrrolidinyl)carbonyl)-2-methylpropyl)carbamate] | 1 to 999
COC(=O)N[C@H](C(=O)N1[C@H](c2ncc(-c3ccc(-c4ccc(-c5cnc([C@@H]6C[C@@H]7C[C@@H]7N6C(=O)[C@@H](NC(=O)OC)C6CC6)[nH]5)cc4)cc3)[nH]2)C[C@@H]2C[C@@H]21)C1CC1 [Example M127, dimethyl (4,4′-biphenyldiylbis(1H-imidazole-5,2-diyl(1S,3S,5S)-2-azabicyclo[3.1.0]hexane-3,2-diyl((1S)-1-cyclopropyl-2-oxo-2,1-ethanediyl)))biscarbamate] | 1000 to 99000
